Values of other authors as cited in US20250171403A1 (Synthon B.V., priority 2022, published 2025).

Conditions: qualitative, background statement

SMILES: COc1cc2nccc(Oc3ccc(NC(=O)C4(C(=O)Nc5ccc(F)cc5)CC4)cc3)c2cc1OC [Cabozantinib, N-[4-(6,7-Dimethoxyquinolin-4-yloxy)phenyl]-N′-(4-fluorophenyl)cyclopropane-1,1-dicarboxamide]
- solubility (prior art, general statement): poorly soluble
